The source of these data is publication PMC9578396, “Intrinsic Antibacterial Activity of Xeruborbactam In Vitro: Assessing Spectrum and Mode of Action” (Antimicrobial Agents and Chemotherapy, 2022).

In test [1] the target is T1, PBP2 (Pseudomonas aeruginosa, UniProt Q9X6V3).
T1 construct: Five microliters of total bacterial membrane preparation was mixed with 5 μL of a test compound; endogenous in cells
On the set-up: method as in PMID 18250190. The note with it: value in parentheses; P. aeruginosa PAO1; cited from earlier work.

The target in test [2] is T2, PBP1a (Pseudomonas aeruginosa, UniProt Q07806).
T2 construct: endogenous in cells
T2 sequence (Q07806 whole entry): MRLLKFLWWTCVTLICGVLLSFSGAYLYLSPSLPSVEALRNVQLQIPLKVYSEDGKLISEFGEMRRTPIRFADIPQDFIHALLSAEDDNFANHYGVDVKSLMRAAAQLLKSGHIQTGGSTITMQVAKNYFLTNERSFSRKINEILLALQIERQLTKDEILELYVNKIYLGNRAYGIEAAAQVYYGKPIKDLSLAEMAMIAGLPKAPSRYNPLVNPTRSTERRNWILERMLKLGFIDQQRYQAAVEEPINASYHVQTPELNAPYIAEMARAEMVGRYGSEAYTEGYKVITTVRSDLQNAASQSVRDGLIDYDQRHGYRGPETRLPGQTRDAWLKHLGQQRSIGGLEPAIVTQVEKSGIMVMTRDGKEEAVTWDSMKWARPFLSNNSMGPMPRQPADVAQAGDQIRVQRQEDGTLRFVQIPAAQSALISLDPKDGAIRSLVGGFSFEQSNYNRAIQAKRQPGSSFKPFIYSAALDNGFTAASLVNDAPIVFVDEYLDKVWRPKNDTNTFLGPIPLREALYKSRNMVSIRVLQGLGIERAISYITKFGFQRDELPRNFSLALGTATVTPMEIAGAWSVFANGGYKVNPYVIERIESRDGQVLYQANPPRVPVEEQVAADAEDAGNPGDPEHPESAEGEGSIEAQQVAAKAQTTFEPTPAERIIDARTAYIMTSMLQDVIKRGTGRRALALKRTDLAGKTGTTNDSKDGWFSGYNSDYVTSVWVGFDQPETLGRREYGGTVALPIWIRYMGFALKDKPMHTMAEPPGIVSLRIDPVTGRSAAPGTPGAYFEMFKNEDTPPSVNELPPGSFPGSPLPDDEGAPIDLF
In words: Gel-based Bocillin FL competition PBP binding assay. Particulars: P. aeruginosa PAM3034 membranes; Bocillin FL step 0°C for xeruborbactam, 30°C for beta-lactams; read-out: Relative binding IC50, PBP1a. The protocol: (§1) Ten milliliters of overnight bacterial culture was inoculated in 1 L of LB medium and grown to an OD600 of 0.7 to 0.9. The cell pellet was washed once with 50 mL of solution containing 100 mM Na-phosphate at pH 7.0 and 100 mM NaCl and resuspended in 10 mL of the same buffer with one tablet of EDTA-free mini-protease inhibitor and 10 mg of lysozyme. Cell suspensions were incubated for 45 min at 37°C, and then 200 μL of DNase I was added along with MgSO4 (to a final concentration of 10 mM), followed by three cycles of freeze-thawing (10 min and 20 min, respectively). Four cycles of sonication at maximum power were performed next, each cycle lasting for 30 s with 1 min on ice between cycles. The cell suspension was centrifuged at 12,000 × g for 10 min at 4°C. The supernatant was collected and centrifuged at 100,000 × g for 45 min at 4°C. The pellet was washed three times with 10 mL of 100 mM Na-phosphate, pH 7.0, by resuspension and subsequent centrifugation at 100,000 × g for 10 min at 4°C. The pellet was finally resuspended in 1.5 mL of 100 mM Na-phosphate, pH 7.0, and passed several times through a Dounce homogenizer (tight pestle). Membrane preparations were aliquoted and kept at −80°C.
(§2) Five microliters of total bacterial membrane preparation was mixed with 5 μL of a test compound at a desired concentration in 100 mM Na-phosphate buffer, pH 7.0. Incubation of bacterial membrane preparations with control beta-lactams was performed for 10 min at 30°C; xeruborbactam was incubated with membrane preparations for 1 h at 30°C. Five microliters of 150 μM Bocillin FL fluorescent probe (Thermo Fisher Scientific) was added, and the reaction mixture was incubated for an additional 10 min at 30°C in the case of beta-lactams or for 20 min on ice (0°C) in the case of xeruborbactam. […] At the end of the incubation step, 15 μL of 2× SDS sample loading buffer was added, and the reaction mixture was incubated for 5 min at 95°C. Twenty-five microliters of the reaction mixture was then loaded on an 8% SDS Tris-glycine gel (Thermo Fisher Scientific). At the end of the run, the gel was briefly rinsed with water and fixed in 10% acetic acid, 40% methanol for 20 min. After an additional wash in water for 30 min, the gel was scanned on a Typhoon Trio+ Imager using a blue laser filter (excitation, 488 nm, and emission, 520 nm). Densitometry of the gel images was performed using ImageQuant software (Molecular Dynamics). IC50 values were calculated with Prism software (GraphPad).

The target in test [3] is T2, PBP1a. On the set-up: method as in PMID 18250190. The note with it: value in parentheses; P. aeruginosa PAO1; cited from earlier work.
The next test concerns PBP1b. On the set-up: method as in earlier work. The note with it: value in parentheses; A. baumannii ATCC 19606; cited from earlier work.
Test [4] concerns the target PBP1a/PBP1b, PBP2, and PBP3. In words: Bocillin FL competition PBP binding assay, summary for two species. Particulars: PBP2, and PBP3 from E. coli and K. pneumoniae, read-out: IC50 range. Here is the method: as §1, with “Membrane preparations were aliquoted and kept at −80°C.” left out
Five microliters of total bacterial membrane preparation was mixed with 5 μL of a test compound at a desired concentration in 100 mM Na-phosphate buffer, pH 7.0. […] IC50 values were calculated with Prism software (GraphPad).

The next test concerns Serratia marcescens. In words: Broth microdilution MIC (CLSI), Serratia marcescens. The test is classed as cell-based. The note with it: 10 isolates. From the text:
(§3) Bacterial isolates were subjected to broth microdilution susceptibility testing, performed according to Clinical and Laboratory Standards Institute (CLSI) methods ([46]), using panels prepared in-house. Meropenem was purchased from Sandoz, and all other antibiotics were from Sigma-Aldrich. Xeruborbactam was synthesized at Qpex Biopharma, San Diego, CA. Avibactam was purchased from eNovation Chemicals LLC, Bridgewater, NJ, USA; zidebactam was from MedKoo Biosciences, Inc., Morrisville, NC, and nacubactam was from Advanced ChemBlocks, Hayward, CA. Durlobactam was synthesized at Acme Bioscience, Palo Alto, CA, USA.
On the technique in general: In broth dilution the organism is exposed to a series of concentrations in liquid medium.

Test [5] addresses T1, PBP2. Description: Gel-based Bocillin FL competition PBP binding assay. The note with it: P. aeruginosa PAM3034 membranes; Bocillin FL step 0°C for xeruborbactam, 30°C for beta-lactams; read-out: Relative binding IC50, PBP2. The protocol: as §1, §2
A further test addresses T3, PBP3 (Pseudomonas aeruginosa, UniProt G3XD46).
T3 construct: endogenous in cells
The description is as above. Particulars: P. aeruginosa PAM3034 membranes; Bocillin FL step 0°C for xeruborbactam, 30°C for beta-lactams; read-out: Relative binding IC50, PBP3. The protocol:
as §1, §2

Test [6] relates to strain ECM5497 of E. coli. In words: Minimal bactericidal concentration (MBC), E. coli. It counts as cell-based. Particulars: Escherichia coli.
Test [7] concerns strain KPM1026a of K. pneumoniae. In words: Minimal bactericidal concentration (MBC), K. pneumoniae. The test is classed as cell-based. Particulars: Klebsiella pneumoniae.
The subject of test [8] is Enterobacter cloacae species complex. Description: Broth microdilution MIC (CLSI), Enterobacter cloacae. It counts as cell-based. The note with it: for MIC: Enterobacter cloacae.
Description: as §3

Test [9] has as its system strain PAM1154 of P. aeruginosa. In words: Minimal bactericidal concentration (MBC), P. aeruginosa. It counts as cell-based. Particulars: Pseudomonas aeruginosa.
[10] abbreviates: Enterobacter cloacae species complex, 45 isolates.

≈ marks a conversion by molar mass, not a printed value. Where two headings read alike, the source gives them in different places.

A word on the IC50: it is the concentration that gives 50% inhibition. As usually defined, the MIC50 is the lowest concentration that inhibits either 50% of growth or 50% of the strains tested, depending on the study. In general, MIC90 refers to the lowest concentration that inhibits either 90% of growth or 90% of the strains tested, depending on the study. By MBC is commonly meant the smallest concentration meeting the test's criterion for killing. Lower therefore signals more potent killing. Usually MIC stands for the lowest concentration that inhibits growth of the organism.

T1 sequence (Q9X6V3 1-646): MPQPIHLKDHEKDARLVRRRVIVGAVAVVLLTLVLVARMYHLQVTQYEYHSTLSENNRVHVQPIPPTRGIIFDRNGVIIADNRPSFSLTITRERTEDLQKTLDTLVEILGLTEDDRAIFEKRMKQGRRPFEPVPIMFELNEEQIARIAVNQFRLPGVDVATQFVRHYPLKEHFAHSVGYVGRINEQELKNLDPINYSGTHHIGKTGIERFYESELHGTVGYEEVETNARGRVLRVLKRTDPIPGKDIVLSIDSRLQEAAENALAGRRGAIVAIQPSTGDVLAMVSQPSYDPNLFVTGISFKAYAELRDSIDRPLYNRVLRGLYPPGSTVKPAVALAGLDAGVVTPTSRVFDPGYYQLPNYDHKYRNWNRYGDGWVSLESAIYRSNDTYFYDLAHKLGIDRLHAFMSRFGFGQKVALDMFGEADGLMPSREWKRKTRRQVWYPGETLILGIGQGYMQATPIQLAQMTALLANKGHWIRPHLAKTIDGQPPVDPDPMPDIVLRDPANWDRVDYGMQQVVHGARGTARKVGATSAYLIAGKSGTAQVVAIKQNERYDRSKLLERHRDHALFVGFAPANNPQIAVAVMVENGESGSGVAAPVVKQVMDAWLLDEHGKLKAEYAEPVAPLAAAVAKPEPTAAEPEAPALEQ
T3 sequence (G3XD46 whole entry): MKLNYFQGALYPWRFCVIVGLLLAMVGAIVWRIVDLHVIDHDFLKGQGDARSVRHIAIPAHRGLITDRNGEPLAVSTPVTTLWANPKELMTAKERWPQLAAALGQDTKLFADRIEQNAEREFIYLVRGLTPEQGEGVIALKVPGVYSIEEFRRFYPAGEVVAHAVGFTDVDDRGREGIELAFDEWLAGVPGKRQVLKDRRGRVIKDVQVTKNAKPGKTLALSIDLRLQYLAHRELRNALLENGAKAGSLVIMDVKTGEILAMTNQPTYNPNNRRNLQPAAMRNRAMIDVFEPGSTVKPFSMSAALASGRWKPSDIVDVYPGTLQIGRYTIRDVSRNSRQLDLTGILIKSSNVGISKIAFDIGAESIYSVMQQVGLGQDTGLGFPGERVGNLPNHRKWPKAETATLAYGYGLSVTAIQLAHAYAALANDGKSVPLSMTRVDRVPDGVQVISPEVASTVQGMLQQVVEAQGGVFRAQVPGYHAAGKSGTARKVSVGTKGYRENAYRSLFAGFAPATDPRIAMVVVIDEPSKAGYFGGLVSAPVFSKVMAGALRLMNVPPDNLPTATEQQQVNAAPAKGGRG

In the case of `C[C@@H](O)[C@H]1C(=O)N2C(C(=O)O)=C(S[C@@H]3CN[C@H](C(=O)N(C)C)C3)[C@H](C)[C@H]12` [Meropenem], the 50% inhibitory concentration (IC50) at PBP2 [1] was 50 nM; at PBP1a [2] it was 170 nM; at PBP1a [3] it was 500 nM; in the test on PBP1b, 500 nM.

For the molecule `O=C(O)c1c(F)ccc2c1OB(O)[C@@H]1C[C@H]21` [Xeruborbactam], the IC50 was 40 to 70 µM in [4], 370 ± 120 µM at PBP2 [5] and 510 ± 120 µM at PBP3. The MIC50 against Serratia marcescens turned out to be 32 µg/mL (≈ 144 µM); in test [8] (setting [10]), 16 µg/mL (≈ 72.1 µM). Moreover, the MIC90 (in the test on Serratia marcescens; in [8] (setting [10])) was 32 µg/mL (≈ 144 µM) each time. Also, the MIC range in the test on Serratia marcescens lay in the range of 16 to 64 µg/mL; in test [8] (setting [10]) it was 4 to 64 µg/mL. In addition, the minimal bactericidal concentration (MBC) in test [6] worked out at 8 µg/mL (≈ 36 µM); in test [7], 16 µg/mL (≈ 72.1 µM); in test [9], 32 µg/mL (≈ 144 µM). Besides, the minimal inhibitory concentration (MIC) in test [8] (Enterobacter cloacae species complex isolates, read-out: highest MIC observed) stood at 64 µg/mL (≈ 288 µM); in test [8] (clinical isolate ECL1057, OmpK35 FN, OmpK36 NF, read-out: MIC) it was 64 µg/mL (≈ 288 µM); in [8] (clinical isolate ECL1079, OmpK35 NF, OmpK36 NF, read-out: MIC), 64 µg/mL (≈ 288 µM); in [8] (clinical isolate ECL1126, OmpK35 FN, OmpK36 FN, read-out: MIC) it was 16 µg/mL (≈ 72.1 µM); in test [8] (clinical isolate ECL1131, OmpK35 NF, OmpK36 FN, read-out: MIC), 16 µg/mL (≈ 72.1 µM).
